The source of these data is paper PMC8777265, “The Environmental Pollutant Bromophenols Interfere With Sulfotransferase That Mediates Endocrine Hormones” (Frontiers in Endocrinology, 2022).

Holding throughout (assay type): biochemical
For assay [1], the target named is T1, SULT1A3 (Homo sapiens, UniProt P0DMM9).
T1 construct: recombinant human enzyme, commercial (BD Gentest)
Nature of the assay: PNP sulfation, UPLC-UV, Lineweaver-Burk with slope replot.

Assay [2] concerns the target T1, SULT1A3. In words: PNP sulfation, UPLC-UV, […] inhibitor.
Assay [3] has as its target T2, SULT1B1 (Homo sapiens, UniProt O43704).
T2 construct: recombinant human enzyme, commercial (BD Gentest)
In words: PNP sulfation, UPLC-UV, […] inhibitor.

Assay [4] deals with T3, SULT1A1 (Homo sapiens, UniProt P50225).
T3 construct: recombinant human enzyme, commercial (BD Gentest)
Nature of the assay: PNP sulfation, UPLC-UV, […] inhibitor.

Another assay has as its target T4, SULT1E1 (Homo sapiens, UniProt P49888).
T4 construct: recombinant human enzyme, commercial (BD Gentest)
T4 sequence (P49888 1-294): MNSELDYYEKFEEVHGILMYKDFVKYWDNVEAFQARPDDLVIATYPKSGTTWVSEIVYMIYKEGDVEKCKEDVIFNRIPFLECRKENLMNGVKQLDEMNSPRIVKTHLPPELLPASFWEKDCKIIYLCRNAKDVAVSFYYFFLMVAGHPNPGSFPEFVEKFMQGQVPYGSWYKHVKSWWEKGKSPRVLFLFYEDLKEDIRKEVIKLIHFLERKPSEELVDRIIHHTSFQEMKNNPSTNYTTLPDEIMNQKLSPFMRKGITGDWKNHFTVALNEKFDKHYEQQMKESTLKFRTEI
Nature of the assay: PNP sulfation, UPLC-UV, […] inhibitor.

In assay [5] the target is T3, SULT1A1. Nature of the assay: PNP sulfation, UPLC-UV, single-concentration screen. The following applies: 40 µM PNP, 40 µM PAPS, 5 mM MgCl2, 100 mM Tris-HCl pH 7.4, 37 °C.
Assay [6] has as its target T2, SULT1B1. The description is as above. Conditions: 25 µM PNP, 40 µM PAPS, 5 mM MgCl2, 100 mM Tris-HCl pH 7.4, 37 °C.

pIC50, pKi: −log10 of the molar value.

T3 sequence (P50225 whole entry): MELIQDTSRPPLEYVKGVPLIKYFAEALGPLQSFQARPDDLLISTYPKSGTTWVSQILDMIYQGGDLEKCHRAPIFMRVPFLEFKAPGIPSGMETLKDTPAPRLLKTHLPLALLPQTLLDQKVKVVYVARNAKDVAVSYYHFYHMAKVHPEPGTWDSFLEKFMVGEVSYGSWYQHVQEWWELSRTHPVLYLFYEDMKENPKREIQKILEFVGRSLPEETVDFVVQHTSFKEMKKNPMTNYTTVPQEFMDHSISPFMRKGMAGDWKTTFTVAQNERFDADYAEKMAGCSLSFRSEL
T2 sequence (O43704 whole entry): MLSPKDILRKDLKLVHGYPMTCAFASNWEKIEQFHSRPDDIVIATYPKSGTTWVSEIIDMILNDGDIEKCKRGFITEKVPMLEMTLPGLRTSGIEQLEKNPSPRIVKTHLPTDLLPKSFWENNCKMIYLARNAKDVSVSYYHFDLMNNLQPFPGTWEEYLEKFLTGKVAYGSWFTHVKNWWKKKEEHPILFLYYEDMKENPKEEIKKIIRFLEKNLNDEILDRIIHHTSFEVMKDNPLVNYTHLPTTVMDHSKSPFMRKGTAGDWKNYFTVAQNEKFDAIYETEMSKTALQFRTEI
T1 sequence (P0DMM9 whole entry): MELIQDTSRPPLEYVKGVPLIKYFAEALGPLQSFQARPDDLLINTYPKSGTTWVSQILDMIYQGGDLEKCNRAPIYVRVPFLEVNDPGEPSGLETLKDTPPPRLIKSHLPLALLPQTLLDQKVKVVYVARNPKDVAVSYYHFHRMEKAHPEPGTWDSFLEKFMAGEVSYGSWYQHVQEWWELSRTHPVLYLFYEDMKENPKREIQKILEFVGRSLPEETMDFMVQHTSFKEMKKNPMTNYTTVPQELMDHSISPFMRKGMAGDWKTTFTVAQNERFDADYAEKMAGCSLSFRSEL

In general, pKi refers to −log10 of the Ki, conventionally taken in molar units. The pIC50 is −log10 of the IC50, conventionally taken in molar units. The low end stands for a large IC50, the high end for a small IC50. On to `Oc1c(Br)cc(Br)cc1Br` [2,4,6-TBP], for which, at SULT1A3 [1], the pKi was 4.79. Besides, the negative-log IC50 (pIC50) was 5.40 against SULT1A3 [2], 5.98 on SULT1B1 [3], 5.99 on SULT1A1 [4] and 5.22 on SULT1E1.
On to `Oc1ccc(Br)cc1Br` [2,4-DBP], for which the pIC50 at SULT1A3 [2] is 4.59; against SULT1B1 [3], 5.37; against SULT1A1 [4], 5.99; on SULT1E1 it was 5.49.
For `Oc1cc(Br)ccc1Br` [2,5-DBP], the pIC50 is 4.89 at SULT1A3 [2], 5.27 at SULT1B1 [3] and 5.91 at SULT1A1 [4].
For the compound `Oc1ccccc1Br` [2-BP], the pIC50 at SULT1A3 [2] is 5.05; against SULT1B1 [3] it was 5.97; on SULT1A1 [4], 5.99; on SULT1E1 it was 4.59.
As to `Oc1cccc(Br)c1` [3-BP], the “% inhibition at 100 μM” value is 3-BP and 4-BP only showed strong inhibition ability towards SULT1A1 and SULT1B1 at SULT1A1 [5]; 3-BP and 4-BP only showed strong inhibition ability towards SULT1A1 and SULT1B1 on SULT1B1 [6].
